From PubChem BioAssay (NCI) come the findings set out here.

Some test systems named below: MDA-N; MALME-3M melanoma; HS 578T breast; SK-MEL-28 melanoma; CCRF-CEM leukemia; DU-145 prostate; OVCAR-3 ovarian; PC-3 prostate; EKVX NSCLC; NCI-H522 lung.
Test in all cases: inhibition of tumour cell growth, NCI panel, 48 h

The structures appear in SMILES notation.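 Growth conditions: 96-well plates. Treatment: test compound, 48 hours, 5 concentrations. Analysis: linear interpolation between bracketing concentrations; unreached endpoints set to highest concentration. TGI: total growth inhibition.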

Consider `O=C(O)CC(Cc1ccccc1Cl)C(=O)O` (configuration not stated), for which the TGI in the assay with MDA-N, with MALME-3M melanoma, in the assay with HS 578T breast, in the assay on SK-MEL-28 melanoma, with CCRF-CEM leukemia and in the assay on DU-145 prostate was over 100 µM in each case. Also, the TGI with OVCAR-3 ovarian, in the assay with PC-3 prostate, in the assay on EKVX NSCLC and in the assay on NCI-H522 lung was over 100 µM each time.
For `CC(N=NNc1ccc(-c2nc3ccccc3[nH]2)cc1)C(=O)O` (configuration not stated), the TGI in the assay on MDA-N, in the assay on MALME-3M melanoma, in the assay on HS 578T breast, with SK-MEL-28 melanoma, in the assay on CCRF-CEM leukemia and with DU-145 prostate was over 100 µM in each case. The TGI in the assay on OVCAR-3 ovarian was 54.7 µM; with PC-3 prostate, over 100 µM; in the assay on EKVX NSCLC it was over 100 µM; in the assay with NCI-H522 lung, 75.7 µM.
Take `C/C(CC(O)(C(F)(F)F)C(F)(F)F)=N\NC(N)=O`: the TGI with MDA-N, in the assay with MALME-3M melanoma, with HS 578T breast, in the assay with SK-MEL-28 melanoma, with CCRF-CEM leukemia and in the assay with DU-145 prostate was over 10 µM throughout. The TGI in the assay on OVCAR-3 ovarian, with PC-3 prostate, in the assay with EKVX NSCLC and with NCI-H522 lung was over 10 µM in each case.
Take `O=c1[nH]c2nc3ccccc3c(=O)n2/c1=C/c1ccc(Cl)cc1`: the TGI was 59.5 µM in the assay on MDA-N; over 100 µM in the assay with MALME-3M melanoma; 65.2 µM in the assay on HS 578T breast; over 100 µM with SK-MEL-28 melanoma; over 100 µM with CCRF-CEM leukemia; over 100 µM with DU-145 prostate. The TGI with OVCAR-3 ovarian is over 100 µM; in the assay on PC-3 prostate, over 100 µM; with NCI-H522 lung, 71.8 µM.
For the compound `CC(=O)NC1C(OCc2ccccc2)OC(CO)C(O)C1OCC(=O)N1CCCC1C(=O)N[C@@H](CCC(=O)NCCCCNc1c2ccccc2nc2cccc([N+](=O)[O-])c12)C(N)=O` (some centres not stated), the TGI in the assay with MDA-N is 30.6 µM; in the assay with MALME-3M melanoma, over 100 µM; in the assay with HS 578T breast it was 74.8 µM; in the assay with SK-MEL-28 melanoma it was over 100 µM; in the assay with DU-145 prostate, over 100 µM; in the assay on OVCAR-3 ovarian it was 61.9 µM. The TGI in the assay with PC-3 prostate is 60.3 µM; in the assay on EKVX NSCLC, over 100 µM.
In the case of `COC(=O)C1(NC(=O)C(CC(=O)OCc2ccccc2)NC(=O)OCc2ccccc2)CCCCCC1` (configuration not stated), the TGI in the assay with MDA-N is 61.4 µM; in the assay on MALME-3M melanoma it was over 100 µM; in the assay with HS 578T breast, over 100 µM; in the assay on SK-MEL-28 melanoma, over 100 µM; with DU-145 prostate, over 100 µM; with OVCAR-3 ovarian, over 100 µM. Also, the TGI in the assay with PC-3 prostate, in the assay with EKVX NSCLC and with NCI-H522 lung was over 100 µM in each case.
Turning to `CC(C)(C)c1ccccc1N1C(=O)c2ccc3c4c(ccc(c24)C1=O)N(c1ccccc1C(C)(C)C)C3=O`, the TGI with MDA-N, in the assay on HS 578T breast, in the assay on SK-MEL-28 melanoma, in the assay with CCRF-CEM leukemia, with DU-145 prostate and in the assay with OVCAR-3 ovarian was over 100 µM in each case. The TGI in the assay with PC-3 prostate, in the assay with EKVX NSCLC and with NCI-H522 lung was over 100 µM each time.
Consider `COC(=O)Cc1cc(O)c2c(c1O)C(=O)c1ccccc1C2=O`, for which the TGI was over 100 µM in the assay with MDA-N; over 100 µM in the assay with MALME-3M melanoma; over 84.5 µM with HS 578T breast; over 100 µM in the assay with SK-MEL-28 melanoma; over 100 µM in the assay on CCRF-CEM leukemia; over 100 µM with DU-145 prostate. The TGI in the assay with OVCAR-3 ovarian, in the assay with PC-3 prostate, with EKVX NSCLC and in the assay on NCI-H522 lung was over 100 µM throughout.
For `C[C@@H](NC(C#N)c1ccco1)c1ccccc1` (some centres not stated), the TGI in the assay on MDA-N, in the assay on MALME-3M melanoma, with HS 578T breast, with SK-MEL-28 melanoma, with CCRF-CEM leukemia and in the assay with DU-145 prostate was over 100 µM throughout. Moreover, the TGI with OVCAR-3 ovarian, with PC-3 prostate and with EKVX NSCLC was over 100 µM throughout.
Consider `N#CCCN(CCC#N)c1ccc(/C=C2\N=C(c3ccccc3)N(c3ccc(F)cc3)C2=O)cc1`, for which the TGI with MDA-N, in the assay on MALME-3M melanoma, in the assay with HS 578T breast, in the assay with SK-MEL-28 melanoma, in the assay with DU-145 prostate and in the assay with OVCAR-3 ovarian was over 100 µM in each case. For the same compound, the TGI in the assay on PC-3 prostate and in the assay with EKVX NSCLC was over 100 µM each time.
`CC(=O)Nc1ccc2c(C)c3c(nc2n1)[nH]c1ccccc13`: the TGI in the assay on MDA-N was 44 µM; in the assay on HS 578T breast, 70 µM; in the assay on CCRF-CEM leukemia, over 100 µM; in the assay with DU-145 prostate, over 100 µM; with OVCAR-3 ovarian, 65.5 µM; in the assay with PC-3 prostate it was over 100 µM. Also, the TGI is 98.1 µM in the assay with EKVX NSCLC and 53.2 µM with NCI-H522 lung.
Regarding `CCO/C(=N/S(=O)(=O)C(F)(F)F)N(C(C)C)C(C)C`, the TGI with MDA-N, in the assay on MALME-3M melanoma, with HS 578T breast, in the assay on SK-MEL-28 melanoma, in the assay with CCRF-CEM leukemia and in the assay with DU-145 prostate was over 100 µM each time. Besides, the TGI with PC-3 prostate, with EKVX NSCLC and in the assay on NCI-H522 lung was over 100 µM throughout.
Consider `C=CCSC1=N/C(=C\c2ccc(Cl)cc2)C(=O)N1CC=C`, for which the TGI was over 100 µM in the assay on MDA-N; over 100 µM in the assay on HS 578T breast; over 100 µM in the assay on SK-MEL-28 melanoma; 51.8 µM in the assay on CCRF-CEM leukemia; over 100 µM in the assay with DU-145 prostate; over 100 µM in the assay on OVCAR-3 ovarian. Also, the values for the TGI in the assay with PC-3 prostate, with EKVX NSCLC and in the assay with NCI-H522 lung were 54.2 µM, 57.3 µM and 79.9 µM, respectively.
In the case of `COc1cc(C2c3c(ccc4ccccc34)C(=O)C3CCC(=O)N32)cc(OC)c1OC` (configuration not stated), the TGI with MDA-N, in the assay with HS 578T breast, with SK-MEL-28 melanoma, in the assay with CCRF-CEM leukemia, with DU-145 prostate and with OVCAR-3 ovarian was over 50 µM each time. In addition, the TGI in the assay with PC-3 prostate, in the assay on EKVX NSCLC and in the assay with NCI-H522 lung was over 50 µM in each case.
